# Test results taken from patent publication US20040029910A1, “Protoberberine derivatives which inhibit activity of the mitogen-activated protein kinase” (priority 2000, published 2004).
# How the values were obtained:
# Wis1 kinase = molecular target: T1, Wis1 kinase (Schizosaccharomyces pombe, UniProt P33886); experiment: Wis1 kinase activity and autophosphorylation ([γ-32P]ATP, SDS-PAGE, FIG. 2); assay type: biochemical; details: purified GST-Wis1, kinase reaction 30° C. 30 minutes, autophosphorylation also measured
# T1 construct: The genes wis1 and spc1 were cloned into the pRep1 vector containing nmt1 promoter; made in house; host or cells: Schizosaccharomyces pombe KGY246 (pRep1 vector, nmt1 promoter)
# T1 sequence (P33886 1-605): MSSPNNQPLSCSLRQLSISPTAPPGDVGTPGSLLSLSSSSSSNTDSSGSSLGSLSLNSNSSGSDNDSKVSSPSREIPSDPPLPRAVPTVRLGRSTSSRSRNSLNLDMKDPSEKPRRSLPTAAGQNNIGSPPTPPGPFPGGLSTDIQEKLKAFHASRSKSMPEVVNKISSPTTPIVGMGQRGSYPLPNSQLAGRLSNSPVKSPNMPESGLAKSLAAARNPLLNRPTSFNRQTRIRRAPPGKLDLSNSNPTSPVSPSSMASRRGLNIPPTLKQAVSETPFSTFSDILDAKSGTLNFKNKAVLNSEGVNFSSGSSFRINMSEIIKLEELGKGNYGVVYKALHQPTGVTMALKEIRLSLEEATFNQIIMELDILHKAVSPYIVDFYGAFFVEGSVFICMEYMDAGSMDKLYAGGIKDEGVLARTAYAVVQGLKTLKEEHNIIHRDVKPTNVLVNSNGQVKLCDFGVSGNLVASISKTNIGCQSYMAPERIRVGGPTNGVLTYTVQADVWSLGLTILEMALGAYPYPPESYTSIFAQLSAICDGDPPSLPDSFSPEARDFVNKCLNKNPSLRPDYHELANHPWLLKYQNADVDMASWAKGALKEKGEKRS
# Procedure: The genes wis1 and spc1 were cloned into the pRep1 vector containing nmt1 promoter of which expression was inhibited by thiamin in the medium and able to tag GST. The KGY246 cells, wild type Schizosaccharomyces pombe cells were transformed with this plasmid. The expression of Wis1 and Spc1 kinase tagged with GST was induced by the cultivation of the transformed cells in MM^AU medium containing 0.4 mM thiamin followed by cultivation to exponential phase(5×10^6 cells) for about 20 hours in 100 mL of MM^AU medium in which thiamin was withdrawn. After osmotic shock(0.6M KCl) and oxidative stress were given to the cells expressing Wis1 and Spc1 tagged with GST for 25 minutes, cells were recovered at 4° C., washed with ice-cold PBS/NaF(50 mM)/NaN3(1 mM) buffer and HB buffer(25 mM HEPES, pH 7.5, 60 mM β-glycerophosphate, 15 mM EGTA, 0.1 mM Na vanadate, 0.1% triton and hydrolyzed using glass bead and bead beater purchased from Sigma. The supernatant of hydrolyzed cells was incubated with 100 mM NaCl for salting-out to remove unnecessary proteins. After the supernatant was incubated with 0.045 g/ml GST beads for 1.5 hours, proteins not bound to GST beads were removed. Purified Wis1 and Spc1 kinases were separated on 7% SDS-PAGE and the degree of purification was confirmed by western blotting using GST antibody.
# Before Wis1 and Spc1 kinases purified in example 4 were analyzed, they were pre-incubated in analyzing buffer of kinase (50 mM Tris-Cl pH7.4, 20 mM MgCl2, 5 mM EGTA, 2 mM Na vanadate, 1 mM DTT). The kinase reaction was performed at 30° C. for 30 minutes in the presence of 1 mg/ml myelin basic protein(MBP), 1 mM ATP and 20 uCi of [γ-^32p]ATP and then terminated by adding SDS sample buffer and heating at 90° C. for 5 minutes. The reaction mixtures were separated on SDS-polyacrylamide gel electrophoresis. After fixation with 10% acetic acid: 10% methanol and drying, the gel was exposed on X-ray film. When Wis1 is activated by stimulus, it also activates autophosphorylation. Therefore, the degree of Wis1 autophosphorylation was also measured.
# [1] = system: knock-out mutant of wis1 (JM544); experiment: Growth (cell number) of wis1 knock-out mutant; assay type: cell-based, Schizosaccharomyces pombe; details: for inhibition of the activity of Wis1 kinase, concluded from effects on knock-out mutants: conclusion from growth of knock-out mutants; for cell number: Table 5, wis1 knock-out, miconazole 3 ug/mL
# Procedure: To investigate the effect of protoberberine derivatives on the growth of cells, the cells of each strain were cultured in rich medium YE^AU to exponential phase(5×10^7 cells/mL). […]
# [2] = system: knock-out mutant of spm1 in Mhk1-Spm1 pathway (TZs69); experiment: Growth (cell number) of spm1 knock-out mutant; assay type: cell-based, Schizosaccharomyces pombe; details: Table 4, spm1 knock-out, miconazole 3 ug/mL
# Procedure: (§1) To investigate the effect of protoberberine derivatives on the growth of cells, the cells of each strain were cultured in rich medium YE^AU to exponential phase(5×10^7 cells/mL). These cells were transferred to YE^AU medium and cultured for 12 hours. Then cell number was measured every 3 hours.
# [3] = system: knock-out mutant of byr2 in Ras-Byr2 pathway (SPSU); experiment: Growth (cell number) of byr2 knock-out mutant; assay type: cell-based, Schizosaccharomyces pombe; details: Table 3, byr2 knock-out, miconazole 3 ug/mL
# Procedure: as §1
# [4] = system: knock-out mutant of spc1 (KS1366); experiment: Growth (cell number) of spc1 knock-out mutant; assay type: cell-based, Schizosaccharomyces pombe; details: Table 6, spc1 knock-out, miconazole 3 ug/mL
# Procedure: To investigate the effect of protoberberine derivatives on the growth of cells, the cells of each strain were cultured in rich medium YE^AU to exponential phase(5×10^7 cells/mL). […] Then cell number was measured every 3 hours.
SMILES,inhibition of Wis1 kinase activity (in words) (Wis1 kinase),"inhibition of the activity of Wis1 kinase, concluded from effects on knock-out mutants [1]",also measured
"COc1ccc2c(Cc3c(F)c(F)c(F)c(F)c3F)c3[n+](cc2c1OC)CCc1cc2c(cc1-3)OCO2 [13-(2,3,4,5,6-pentafluorobenzyl)berberine chloride]",directly inhibited,inhibited,
"COc1ccc2c(Cc3c(F)c(F)c(C(F)(F)F)c(F)c3F)c3[n+](cc2c1OC)CCc1cc2c(cc1-3)OCO2.[Cl-] [13-(2,3,5,6-tetrafluoro-4-trifluoromethylbenzyl)berberine chloride]",directly inhibited,inhibited,
"COc1ccc2c(Cc3cccc(Cl)c3Cl)c3[n+](cc2c1OC)CCc1cc2c(cc1-3)OCO2.[Cl-] [13-(2,3-dichlorobenzyl)berberine chloride]",directly inhibited,inhibited,
"COc1ccc2c(Cc3ccc(C)cc3C)c3[n+](cc2c1OC)CCc1cc2c(cc1-3)OCO2.[Cl-] [13-(2,4-dimethylbenzyl)berberine chloride]",directly inhibited,inhibited,
COc1ccc2c(Cc3c(F)cccc3Cl)c3[n+](cc2c1OC)CCc1cc2c(cc1-3)OCO2 [13-(2-chloro-6-fluorobenzyl)berberine chloride],directly inhibited,inhibited,
COc1ccc2c(Cc3cccc(Br)c3)c3[n+](cc2c1OC)CCc1cc2c(cc1-3)OCO2 [13-(3-bromobenzyl)berberine iodide],directly inhibited,inhibited,
COc1ccc2c(Cc3cccc(C(F)(F)F)c3)c3[n+](cc2c1OC)CCc1cc2c(cc1-3)OCO2.[Cl-] [13-(3-trifluoromethylbenzyl)berberine chloride],directly inhibited,inhibited,
COc1ccc2c(Cc3ccc(Cl)cc3)c3[n+](cc2c1OC)CCc1cc2c(cc1-3)OCO2.[I-] [13-(4-chlorobenzyl)berberine iodide],directly inhibited,inhibited,
COc1ccc2c(Cc3ccc(F)cc3C(F)(F)F)c3[n+](cc2c1OC)CCc1cc2c(cc1-3)OCO2.[Cl-] [13-(4-fluoro-2-trifluoromethylbenzyl)berberine chloride],directly inhibited,inhibited,
COc1ccc2c(Cc3ccc(C(C)C)cc3)c3[n+](cc2c1OC)CCc1cc2c(cc1-3)OCO2.[Cl-] [13-(4-i-propylbenzyl)berberine chloride],directly inhibited,inhibited,
COc1ccc(Cc2c3[n+](cc4c(OC)c(OC)ccc24)CCc2cc4c(cc2-3)OCO4)cc1 [13-(4-methoxybenzyl)berberine chloride],directly inhibited,inhibited,
COC(=O)c1ccc(Cc2c3[n+](cc4c(OC)c(OC)ccc24)CCc2cc4c(cc2-3)OCO4)cc1 [13-(4-methoxycarbonylbenzyl)berberine chloride],directly inhibited,inhibited,
COc1ccc2c(Cc3ccc(C)c([N+](=O)[O-])c3)c3[n+](cc2c1OC)CCc1cc2c(cc1-3)OCO2.[Cl-] [13-(4-methyl-3-nitrobenzyl)berberine chloride],directly inhibited,inhibited,
COc1ccc2c(Cc3ccc(C)cc3)c3[n+](cc2c1OC)CCc1cc2c(cc1-3)OCO2.[Cl-] [13-(4-methylbenzyl)berberine chloride],directly inhibited,inhibited,
COc1ccc2c(Cc3ccc(OC(F)(F)F)cc3)c3[n+](cc2c1OC)CCc1cc2c(cc1-3)OCO2.[Cl-] [13-(4-trifluoromethoxybenzyl)berberine chloride],directly inhibited,inhibited,
COc1ccc2c(Cc3ccccc3)c3[n+](cc2c1OC)CCc1cc2c(cc1-3)OCO2.[I-] [13-benzylberberine iodide],directly inhibited,inhibited,
"Clc1ccc(COC(Cn2ccnc2)c2ccc(Cl)cc2Cl)c(Cl)c1 (stereo not shown) [miconazole, reference compound]",,,cell number ([2]; time 12): 28; cell number ([2]; time 15): 27; cell number ([2]; time 18): 23; cell number ([2]; time 21): 34; cell number ([2]; time 24): 26; cell number ([3]; time 12): 32; cell number ([3]; time 15): 19; cell number ([3]; time 18): 31; cell number ([3]; time 21): 30; cell number ([3]; time 24): 27; cell number ([4]; time 12): 15; cell number ([4]; time 15): 9; cell number ([4]; time 18): 12; cell number ([4]; time 21): 18; cell number ([4]; time 24): 17; cell number ([1]; time 12): 35; cell number ([1]; time 15): 37; cell number ([1]; time 18): 25; cell number ([1]; time 21): 19; cell number ([1]; time 24): 12
